# Assay results taken from PubChem BioAssay (NCI).
#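 Compound exposure: 48 hours, 5 concentrations, 96-well plates. Abbreviation: GI50, concentration required for 50% inhibition of growth. TGI marks complete inhibition of growth.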
# Assays:
# Experiment in all cases: NCI tumour cell line growth inhibition, 48 h
# [1] = system: HL-60(TB) leukemia
# [2] = system: A549 NSCLC
# [3] = system: MOLT-4 leukemia
# [4] = system: MCF7 breast
# [5] = system: SF-295 CNS
# [6] = system: SNB-19 CNS
# [7] = system: HCC-2998 colon
# [8] = system: IGROV1 ovarian
# [9] = system: MDA-MB-435
# [10] = system: U251 CNS
# [11] = system: OVCAR-4 ovarian
# [12] = system: UO-31 renal
# [13] = system: SR leukemia
# [14] = system: 786-0 renal
# [15] = system: DU-145 prostate
# [16] = system: SW-620 colon
# [17] = system: M14 melanoma
# [18] = system: A498 renal
# [19] = system: SF-539 CNS
# [20] = system: SK-MEL-2 melanoma
# [21] = system: SNB-75 CNS
# [22] = system: NCI-H226 lung
# [23] = system: SK-OV-3 ovarian
# [24] = system: RXF 393 renal
# [25] = system: UACC-62 melanoma
# [26] = system: SK-MEL-28 melanoma
# [27] = system: HT29 colon
# [28] = system: KM12 colon
# [29] = system: EKVX NSCLC
# [30] = system: ACHN renal
# [31] = system: HCT-15 colon
# [32] = system: MDA-MB-231 breast
# [33] = system: OVCAR-3 ovarian
# [34] = system: CAKI-1 renal
# [35] = system: RPMI-8226 leukemia
# [36] = system: NCI-H522 lung
# [37] = system: PC-3 prostate
# [38] = system: UACC-257 melanoma
# [39] = system: HOP-92 NSCLC
# [40] = system: SK-MEL-5 melanoma
# [41] = system: BT-549 breast
# [42] = system: K-562 leukemia
# [43] = system: HCT-116 colon
# [44] = system: NCI-H23 lung
# [45] = system: LOX IMVI melanoma
# [46] = system: COLO 205 colon
# [47] = system: T-47D breast
# [48] = system: HS 578T breast
# [49] = system: NCI/ADR-RES ovarian
# [50] = system: OVCAR-5 ovarian
# [51] = system: NCI-H460 lung
# [52] = system: OVCAR-8 ovarian
# [53] = system: SN12C renal
# [54] = system: SF-268 CNS
# [55] = system: CCRF-CEM leukemia
# [56] = system: HOP-62 NSCLC
# [57] = system: TK-10 renal
compound,measurement,setting,value
O=C(NCC1CCCO1)c1ccc(NC2=C(Cl)C(=O)N(Cc3ccccc3)C2=O)cc1 (stereo unspecified),GI50,[1],9.25 µM
same,TGI,[1],25 µM
same,GI50,[2],19.1 µM
same,TGI,[2],50.5 µM
same,GI50,[3],4.49 µM
same,TGI,[3],> 100 µM
same,GI50,[4],4.39 µM
same,TGI,[4],26.6 µM
same,GI50,[5],12.1 µM
same,TGI,[5],25 µM
same,GI50,[6],21.5 µM
same,TGI,[6],45.1 µM
same,GI50,[7],13.1 µM
same,TGI,[7],27.1 µM
same,GI50,[8],2.93 µM
same,TGI,[8],7.52 µM
same,GI50,[9],9.33 µM
same,TGI,[9],21.7 µM
same,GI50,[10],18.6 µM
same,TGI,[10],40.7 µM
same,GI50,[11],19.2 µM
same,TGI,[11],44.6 µM
same,GI50,[12],2.67 µM
same,TGI,[12],8.24 µM
same,GI50,[13],12.4 µM
same,TGI,[13],30.9 µM
same,GI50,[14],15.2 µM
same,TGI,[14],28.6 µM
same,GI50,[15],12.3 µM
same,TGI,[15],30 µM
same,GI50,[16],5.95 µM
same,TGI,[16],42.8 µM
same,GI50,[17],11.2 µM
same,TGI,[17],23.4 µM
same,GI50,[18],22.2 µM
same,TGI,[18],41.9 µM
same,GI50,[19],15.4 µM
same,TGI,[19],31.2 µM
same,GI50,[20],17.5 µM
same,TGI,[20],34.7 µM
same,GI50,[21],20 µM
same,TGI,[21],39.3 µM
same,GI50,[22],11.8 µM
same,TGI,[22],26.7 µM
same,GI50,[23],18.6 µM
same,TGI,[23],36.6 µM
same,GI50,[24],20.6 µM
same,TGI,[24],50.8 µM
same,GI50,[25],10.8 µM
same,TGI,[25],24.3 µM
same,GI50,[26],18.6 µM
same,TGI,[26],41.1 µM
same,GI50,[27],22.2 µM
same,TGI,[27],88 µM
same,GI50,[28],17.1 µM
same,TGI,[28],35 µM
same,GI50,[29],20.4 µM
same,TGI,[29],37 µM
same,GI50,[30],18.7 µM
same,TGI,[30],38.8 µM
same,GI50,[31],19 µM
same,TGI,[31],62.3 µM
same,GI50,[32],16.8 µM
same,TGI,[32],46.6 µM
same,GI50,[33],3.18 µM
same,TGI,[33],10.7 µM
same,GI50,[34],1.79 µM
same,TGI,[34],3.34 µM
same,GI50,[35],3.36 µM
same,TGI,[35],12.7 µM
same,GI50,[36],1.92 µM
same,TGI,[36],10.8 µM
same,GI50,[37],11.4 µM
same,TGI,[37],25 µM
same,GI50,[38],17 µM
same,TGI,[38],45.6 µM
same,GI50,[39],6.4 µM
same,TGI,[39],21.5 µM
same,GI50,[40],14.6 µM
same,TGI,[40],33.3 µM
same,GI50,[41],16.7 µM
same,TGI,[41],33.9 µM
same,GI50,[42],11.1 µM
same,TGI,[42],34.3 µM
same,GI50,[43],13.3 µM
same,TGI,[43],26.2 µM
same,GI50,[44],17.2 µM
same,TGI,[44],34.3 µM
same,GI50,[45],24.5 µM
same,TGI,[45],> 100 µM
same,GI50,[46],23 µM
same,TGI,[46],71.9 µM
same,GI50,[47],30.5 µM
same,TGI,[47],> 100 µM
same,GI50,[48],22.1 µM
same,TGI,[48],65.3 µM
same,GI50,[49],23.9 µM
same,TGI,[49],51.4 µM
same,GI50,[50],16.6 µM
same,TGI,[50],32.8 µM
same,GI50,[51],15.5 µM
same,TGI,[51],46.5 µM
same,GI50,[52],16.7 µM
same,TGI,[52],54.6 µM
same,GI50,[53],0.0654 µM
same,TGI,[53],7.32 µM
same,GI50,[54],13.2 µM
same,TGI,[54],45.4 µM
CCc1ccc(COC(=O)C2=C(C)NC(C)=C(C(=O)OCc3ccc(CC)cn3)C2C2=COCCO2)nc1,TGI,[1],66.7 µM
same,TGI,[2],> 100 µM
same,TGI,[3],33.6 µM
same,TGI,[4],43 µM
same,TGI,[5],61.3 µM
same,TGI,[6],54.5 µM
same,TGI,[7],37.7 µM
same,TGI,[55],49.8 µM
same,TGI,[8],> 100 µM
same,TGI,[9],38.3 µM
same,TGI,[10],35.4 µM
same,TGI,[11],66.9 µM
same,TGI,[12],60.4 µM
same,TGI,[13],> 100 µM
same,TGI,[14],69.4 µM
same,TGI,[15],> 100 µM
same,TGI,[16],80.4 µM
same,TGI,[17],31.1 µM
same,TGI,[19],27.7 µM
same,TGI,[21],39.3 µM
same,TGI,[22],40 µM
same,TGI,[23],45.8 µM
same,TGI,[24],37.3 µM
same,TGI,[25],36.7 µM
same,TGI,[26],35 µM
same,TGI,[27],43.7 µM
same,TGI,[28],87.1 µM
same,TGI,[56],37.8 µM
same,TGI,[29],65.1 µM
same,TGI,[30],89.7 µM
same,TGI,[31],71.4 µM
same,TGI,[32],45.8 µM
same,TGI,[33],54.7 µM
same,TGI,[57],> 100 µM
same,TGI,[34],88.5 µM
same,TGI,[36],40.7 µM
same,TGI,[37],43.1 µM
same,TGI,[38],41.5 µM
same,TGI,[39],43 µM
same,TGI,[40],26.1 µM
same,TGI,[41],31.1 µM
same,TGI,[42],53.7 µM
same,TGI,[43],31 µM
same,TGI,[44],51 µM
same,TGI,[45],29.1 µM
same,TGI,[46],29.6 µM
same,TGI,[47],36.1 µM
same,TGI,[48],37.7 µM
same,TGI,[49],63.4 µM
same,TGI,[50],69.3 µM
same,TGI,[51],91.3 µM
same,TGI,[52],> 100 µM
same,TGI,[54],> 100 µM
